Values quoted from earlier work, collected in patent publication US20160115147A1, “PRO-DRUG COMPOUNDS” (Proximagen Limited, priority 2013, published 2016).

Legend:
[1] = test system: unique stereo-selective site in rat brain
[2] = test system: unique stereo-selective site in human brain

CC(=O)c1ccc2c(c1)[C@H](NC(=O)c1ccc(F)c(Cl)c1)[C@H](O)C(C)(C)O2 [Tonabersat]
binding affinity to unique stereo-selective site [1]: high affinity | binding affinity to unique stereo-selective site [2]: high affinity
